# What was measured:
# Type in all cases: cell-based
# HEK293 = assay: Selectivity ratio, ratio of Ki for human melatonin receptor MT2 to Ki for human melatonin receptor MT1 expressed in HEK293 cells
# [1] = biological target: Melatonin receptor type 1A (Homo sapiens, UniProt P48039); assay: Displacement of 2-[125I]-iodomelatonin from human melatonin receptor MT1 expressed in CHO cells after 1 hr by gamma counting analysis
# [2] = biological target: T1, Melatonin receptor type 1B (Homo sapiens, UniProt P49286); assay: Displacement of 2-[125I]-iodomelatonin from human melatonin receptor MT2 expressed in CHO cells after 1 hr by gamma counting analysis
# T1 sequence (P49286 whole entry): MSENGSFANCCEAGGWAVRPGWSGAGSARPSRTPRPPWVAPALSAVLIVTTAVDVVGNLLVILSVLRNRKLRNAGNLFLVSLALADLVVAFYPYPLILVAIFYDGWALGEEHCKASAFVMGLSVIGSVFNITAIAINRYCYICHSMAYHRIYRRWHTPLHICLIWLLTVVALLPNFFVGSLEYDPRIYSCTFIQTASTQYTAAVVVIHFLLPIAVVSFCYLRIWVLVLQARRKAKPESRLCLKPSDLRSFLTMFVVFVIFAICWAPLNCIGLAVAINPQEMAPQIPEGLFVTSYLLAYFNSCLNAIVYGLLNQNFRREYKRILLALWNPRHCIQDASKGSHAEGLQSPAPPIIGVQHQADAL
# CHO = assay: Selectivity ratio, ratio of Ki for human melatonin receptor MT2 to Ki for human melatonin receptor MT1 expressed in CHO cells
# CHO-K1 = assay: Selectivity ratio, ratio of Ki for human melatonin receptor MT2 to Ki for human melatonin receptor MT1 expressed in CHO-K1 cells
# Sequence of Melatonin receptor type 1A (P48039 whole entry): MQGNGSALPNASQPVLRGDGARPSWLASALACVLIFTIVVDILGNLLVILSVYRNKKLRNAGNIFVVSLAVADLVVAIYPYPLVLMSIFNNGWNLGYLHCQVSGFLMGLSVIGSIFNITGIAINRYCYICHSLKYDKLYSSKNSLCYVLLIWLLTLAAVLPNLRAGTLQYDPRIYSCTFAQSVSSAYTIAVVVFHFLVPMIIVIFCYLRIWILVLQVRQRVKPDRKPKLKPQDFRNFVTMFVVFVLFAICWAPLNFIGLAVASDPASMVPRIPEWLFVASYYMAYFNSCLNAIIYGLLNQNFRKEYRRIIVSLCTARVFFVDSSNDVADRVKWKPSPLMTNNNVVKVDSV
SMILES,Ki ([1]; read-out: Ki) [nM],Ki ([2]; read-out: Ki) [nM],further results
CC(=O)NCCc1cccc2ccc(OCCCCOc3ccc4cccc(CCNC(C)=O)c4c3)cc12,,,Ratio Ki (HEK293): 120
CC(=O)NCCc1cccc2ccc(OCCCOc3ccccc3)cc12,35,44,
CC(=O)NCCc1cccc2ccc(OCCCc3ccccc3)cc12,9,9,Ki ([1]; read-out: pKi (converted)): 25.1 nM; Ki ([2]; read-out: pKi (converted)): 21.4 nM
O=C(NCCc1cccc2ccc(OCCCOc3ccc4cccc(CCNC(=O)C(F)F)c4c3)cc12)C(F)F,1.2,8.1,Ratio Ki (CHO): 7
COc1ccc2cccc(CCNC(=O)C(F)F)c2c1,0.054,0.85,Ratio Ki (CHO): 16
O=C(NCCc1cccc2ccc(OCCCCOc3ccc4cccc(CCNC(=O)C(F)F)c4c3)cc12)C(F)F,12,15,
O=C(NCCc1c[nH]c2ccc(OCCCOc3ccccc3)cc12)C(F)F,6.2,7.8,Ratio Ki (CHO): 10
CCCCCCOc1ccc2c(c1)C(CCNC(C)=O)CCO2 (stereo not drawn),,,Ratio Ki (CHO-K1): 30
COc1ccc2cccc(CCNC(=O)C(F)(F)F)c2c1,5,2,
CC(=O)NCCc1cccc2ccc(OCCCOc3ccc4cccc(CCNC(C)=O)c4c3)cc12,112,,Ki ([2]; read-out: pKi (converted)): 355 nM
CC(=O)NCCc1cccc2ccc(OCCCCc3ccccc3)cc12,9,9,
O=C(NCCCc1cccc2nc(CCCCc3ccccc3)oc12)C1CC1,,,Ratio Ki (CHO-K1): 30
COc1ccc2cccc(CCNC(=O)C(Cl)Cl)c2c1,5,2,

# — ChEMBL document CHEMBL3739270 (Medchemcomm, 2015)
